Square brackets hold non-standard residues; d marks the D form. Peptide text beside a SMILES is read from it. Cya = N[CH](CS(=O)(=O)O)C(=O)O
Assays:
[1] = system: platelet Ca-activated protease; assay: inhibition of platelet Ca-activated protease; format: biochemical; conditions: final in-vitro conc. 1 mM
Description: The following results were obtained for inhibition of platelet Ca-activated protease: […]

[2] = in vivo, po; cited from earlier work
[3] = active transport; cited from earlier work
[4] = system: Ca-activated protease; assay: in vitro inhibition of Ca-activated protease; format: biochemical; conditions: for % of Control (Ca-activated protease activity): in vitro, 100 ug; for % of Control (Ca-activated protease activity) after hydrolysis: 100ug, hydrolysis at 60° C., pH 2
Description: It has been shown that in vitro carnitylleucylargininal inhibits Ca-activated protease as well as leupeptin, viz.

[5] = system: muscle Ca-activated protease; assay: in-vivo administration, inhibition of muscle Ca-activated protease; set-up: species or system rats; conditions: for % Inhibition of muscle Ca-activated protease: 2 hours post IP injection

| Compound | % Inhibition of platelet Ca-activated protease [1] [%] | % of Control (Ca-activated protease activity) [4] [%] | other results |
| --- | --- | --- | --- |
| N[C@@H](CS(=O)(=O)O)C(=O)O [Cysteic acid (CDI treated), cysteic acid] | 0 |  |  |
| C[N+](C)(C)C[C@H](N)CC(=O)[O-] [aminocarnitine] |  |  | toxicity when fed orally [2]: non-toxic |
| C[N+](C)(C)CC(O)CC(=O)[O-] (stereo not shown) [carnitine] |  | 84 | concentration in cardiac and skeletal muscle relative to plasma [3]: 50-100 times |
| CC(C)CC(NC(=O)C(N)CS(=O)(=O)O)C(=O)NC(C=O)CCCNC(=N)N (stereo not drawn) [cysteicleucylargininal] (H-[Cya]-Leu-Arg-aldehyde; configuration not given here) | 98 |  |  |
| CC(C)C[C@H](N)C(=O)N[C@H](C=O)CCCNC(=N)N [leucylargininal, leucyl argininal] | 94 |  |  |
| CC(=O)N[C@@H](CC(C)C)C(=O)N[C@@H](CC(C)C)C(=O)N[C@H](C=O)CCCNC(=N)N [leupeptin] | 98 | 7.9 | % Inhibition of muscle Ca-activated protease ([5]; 74 umoles): 20% |
| E-aminoadipic acid [E-aminoadipic acid (CDI treated)] | 0 |  |  |
| carnitylleucylargininal |  | 4.6 | % Inhibition of muscle Ca-activated protease ([5]; 19 umoles): 48%; effectiveness per umole relative to leupeptin in inhibiting Ca-activated protease in skeletal muscle ([5]; injected into rats): about ten times more effective per umole |
| carnitylleucylargininal dibutylacetal |  |  | % of Control (Ca-activated protease activity) after hydrolysis ([4]; 0 time): 17%; % of Control (Ca-activated protease activity) after hydrolysis ([4]; 3 hours): 1.2%; % of Control (Ca-activated protease activity) after hydrolysis ([4]; 24 hours): 100% |

Source: patent US4866040A, “Aminocarnitine directed pharmaceutical agents” (priority 1987, dated 1989)
